In patent US10604509B2, “Nrf2 regulators” (GlaxoSmithKline Intellectual Property Development Limited, priority 2015, dated 2020):
Where a name gives a salt, the structure may show the parent alone.

system: NQO1 specific enzyme activity in BEAS-2B cells; experiment: BEAS-2B NQO1 MTT assay; type: cell-based; conditions: BEAS-2B cells, 48 hours with compound, MTT readout; read-out: EC50 of NQO1 specific activity induction
In short: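 NQO1 specific activity, an NRF2 activation marker, read kinetically as absorbance change at 570 nm for 30 min after MTT cocktail addition to crude lysates of BEAS-2B cells exposed 48 h to compound. Three-parameter fit of Delta OD/min against log concentration gives EC50; lysate portion used for Cell Titer Glo.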

Row | SMILES | EC50 [nM]
1 | CC[C@@H]1CN(Cc2cc([C@H](c3ccc4c(nnn4CC)c3C)[C@H](C)C(=O)O)ccc2C)Cc2ccccc2O1 [Example 199, (2S,3R)-3-(3-(((R)-2-Ethyl-2,3-dihydrobenzo[f][1,4]oxazepin-4(5H)-yl)methyl)-4-methylphenyl)-3-(1-ethyl-4-methyl-1H-benzo[d][1,2,3]triazol-5-yl)-2-methylpropanoic acid] | 10 to 100

same assay, conditions: Homo sapiens, BEAS-2B, 48 h, BEAS-2B cells, 48 hours with compound, MTT readout; read-out: EC50 of NQO1 specific activity induction

Row | SMILES | EC50 [nM]
2 | COc1ccc2c(c1)OC(C)(C)CN(Cc1cc([C@H](CC(=O)O)c3ccc4c(nnn4C)c3C)ccc1C)C2 [Example 168, (S)-3-(1,4-Dimethyl-1H-benzo[d][1,2,3]triazol-5-yl)-3-(3-((8-methoxy-2,2-dimethyl-2,3-dihydrobenzo[f][1,4]oxazepin-4(5H)-yl)methyl)-4-methylphenyl)propanoic acid] | 10 to 100
3 | Cc1ccc([C@@H](CC(=O)O)c2ccc3c(nnn3C)c2C)cc1CN1Cc2ncccc2OC(C)(C)C1 [Example 169, (R)-3-(1,4-Dimethyl-1H-benzo[d][1,2,3]triazol-5-yl)-3-(3-((2,2-dimethyl-2,3-dihydropyrido[2,3-f][1,4]oxazepin-4(5H)-yl)methyl)-4-methylphenyl)propanoic acid, 0.5 Formic acid salt] | 10 to 100
4 | Cc1ccc2c(c1)CN(Cc1cc([C@@H](CC(=O)O)c3ccc4c(nnn4C)c3C)ccc1C)CC(C)(C)O2 [Example 175, (R)-3-(1,4-Dimethyl-1H-benzo[d][1,2,3]triazol-5-yl)-3-(4-methyl-3-((2,2,7-trimethyl-2,3-dihydrobenzo[f][1,4]oxazepin-4(5H)-yl)methyl)phenyl)propanoic Acid] | 10 to 100
5 | Cc1ccc2c(c1)CN(Cc1cc([C@H](CC(=O)O)c3ccc4c(nnn4C)c3C)ccc1C)CC(C)(C)O2 [Example 176, (S)-3-(1,4-Dimethyl-1H-benzo[d][1,2,3]triazol-5-yl)-3-(4-methyl-3-((2,2,7-trimethyl-2,3-dihydrobenzo[f][1,4]oxazepin-4(5H)-yl)methyl)phenyl) propanoic acid] | 10 to 100
6 | Cc1ccc([C@@H](CC(=O)O)c2ccc3c(nnn3C)c2C)cc1CN1Cc2cccc(F)c2OC(C)(C)C1 [Example 177, (R)-3-(1,4-Dimethyl-1H-benzo[d][1,2,3]triazol-5-yl)-3-(3-((9-fluoro-2,2-dimethyl-2,3-dihydrobenzo[f][1,4]oxazepin-4(5H)-yl)methyl)-4-methylphenyl)propanoic acid] | 10 to 100
7 | Cc1ccc([C@H](CC(=O)O)c2ccc3c(nnn3C)c2C)cc1CN1Cc2cccc(F)c2OC(C)(C)C1 [Example 178, (S)-3-(1,4-Dimethyl-1H-benzo[d][1,2,3]triazol-5-yl)-3-(3-((9-fluoro-2,2-dimethyl-2,3-dihydrobenzo[f][1,4]oxazepin-4(5H)-yl)methyl)-4-methylphenyl)propanoic acid] | 10 to 100
8 | Cc1ccc2c(c1)OC(C)(C)CN(Cc1cc([C@@H](CC(=O)O)c3ccc4c(nnn4C)c3C)ccc1C)C2 [Example 179, (R)-3-(1,4-Dimethyl-1H-benzo[d][1,2,3]triazol-5-yl)-3-(4-methyl-3-((2,2,8-trimethyl-2,3-dihydrobenzo[f][1,4]oxazepin-4(5H)-yl)methyl)phenyl) propanoic acid] | 10 to 100
9 | Cc1ccc2c(c1)OC(C)(C)CN(Cc1cc([C@H](CC(=O)O)c3ccc4c(nnn4C)c3C)ccc1C)C2 [Example 180, (S)-3-(1,4-Dimethyl-1H-benzo[d][1,2,3]triazol-5-yl)-3-(4-methyl-3-((2,2,8-trimethyl-2,3-dihydrobenzo[f][1,4]oxazepin-4(5H)-yl)methyl)phenyl) propanoic acid] | 10 to 100
10 | Cc1ccc([C@@H](c2ccc3c(nnn3C)c2C)C(C)(C)C(=O)O)cc1CN1CCC[C@H](n2cccn2)C1 [Example 183, (S)-3-(3-(((S)-3-(1H-Pyrazol-1-yl)piperidin-1-yl)methyl)-4-methylphenyl)-3-(1,4-dimethyl-1H-benzo[d][1,2,3]triazol-5-yl)-2,2-dimethylpropanoic Acid] | 10 to 100
11 | Cc1ccc(C(CC(=O)O)c2ccc3c(nnn3C)c2C)cc1CN1CCCC(S(=O)(=O)c2ccccc2)C1 (stereo not drawn) [Example 185, 3-(1,4-Dimethyl-1H-benzo[d][1,2,3]triazol-5-yl)-3-(4-methyl-3-((3-(phenylsulfonyl)piperidin-1-yl)methyl)phenyl)propanoic Acid] | 10 to 100
12 | Cc1ccc(C(CC(=O)NS(C)(=O)=O)c2ccc3c(nnn3C)c2C)cc1CN1Cc2ccccc2OC(C)(C)C1 (stereo not drawn) [Example 187, 3-(1,4-Dimethyl-1H-benzo[d][1,2,3]triazol-5-yl)-3-(3-((2,2-dimethyl-2,3-dihydrobenzo[f][1,4]oxazepin-4(5H)-yl)methyl)-4-methylphenyl)-N-(methylsulfonyl)propanamide] | 100 to 1000
13 | CC[C@@H]1CN(Cc2cc([C@@H](c3ccc4c(nnn4CC)c3C)C(C)(C)C(=O)O)ccc2C)Cc2cnccc2O1 [Example 188, (S)-3-(3-(((R)-2-Ethyl-2,3-dihydropyrido[3,4-f][1,4]oxazepin-4(5H)-yl)methyl)-4-methylphenyl)-3-(1-ethyl-4-methyl-1H-benzo[d][1,2,3]triazol-5-yl)-2,2-dimethylpropanoic Acid] | < 1
14 | CC[C@@H]1CN(Cc2cc([C@H](c3ccc4c(nnn4CC)c3C)C(C)(C)C(=O)O)ccc2C)Cc2cnccc2O1 [Example 189, (R)-3-(3-(((R)-2-ethyl-2,3-dihydropyrido[3,4-f][1,4]oxazepin-4(5H)-yl)methyl)-4-methylphenyl)-3-(1-ethyl-4-methyl-1H-benzo[d][1,2,3]triazol-5-yl)-2,2-dimethylpropanoic Acid] | 1 to 10
15 | CCn1nnc2c(F)c([C@H](c3ccc(C)c(CN4Cc5ncccc5OC(C)(C)C4)c3)[C@@H](C)C(=O)O)ccc21 [Example 190, (2R,3S)-3-(3-((2,2-Dimethyl-2,3-dihydropyrido[2,3-f][1,4]oxazepin-4(5H)-yl)methyl)-4-methylphenyl)-3-(1-ethyl-4-fluoro-1H-benzo[d][1,2,3]triazol-5-yl)-2-methylpropanoic Acid] | 1 to 10
16 | CC[C@@H]1CN(Cc2cc([C@@H](c3ccc4c(nnn4CC)c3F)[C@@H](C)C(=O)O)ccc2C)Cc2ncccc2O1 [Example 191, (2R,3S)-3-(3-(((R)-2-Ethyl-2,3-dihydropyrido[2,3-f][1,4]oxazepin-4(5H)-yl)methyl)-4-methylphenyl)-3-(1-ethyl-4-fluoro-1H-benzo[d][1,2,3]triazol-5-yl)-2-methylpropanoic acid] | 1 to 10
17 | CC[C@@H]1CN(Cc2cc([C@@H](c3ccc4c(nnn4CC)c3F)[C@@H](C)C(=O)O)ccc2C)Cc2cccc(F)c2O1 [Example 192, (2R,3S)-3-(1-Ethyl-4-fluoro-1H-benzo[d][1,2,3]triazol-5-yl)-3-(3-(((R)-2-ethyl-9-fluoro-2,3-dihydrobenzo[f][1,4]oxazepin-4(5H)-yl)methyl)-4-methylphenyl)-2-methylpropanoic acid] | 1 to 10
18 | CCn1nnc2c(F)c([C@H](c3ccc(C)c(CN4Cc5ccccc5OC(C)(C)C4)c3)[C@@H](C)C(=O)O)ccc21 [Example 193, (2R,3S)-3-(3-((2,2-Dimethyl-2,3-dihydro-benzo[f][1,4]oxazepin-4(5H)-yl)methyl)-4-methylphenyl)-3-(1-ethyl-4-fluoro-1H-benzo[d][1,2,3]triazol-5-yl)-2-methylpropanoic acid, Sodium salt] | 1 to 10
19 | CCn1nnc2c(Cl)c([C@H](c3ccc(C)c(CN4Cc5cccnc5OC(C)(C)C4)c3)[C@@H](C)C(=O)O)ccc21 [Example 194, (2R,3S)-3-(4-Chloro-1-ethyl-1H-benzo[d][1,2,3]triazol-5-yl)-3-(3-((2,2-dimethyl-2,3-dihydropyrido[3,2-f][1,4]oxazepin-4(5H)-yl)methyl)-4-methylphenyl)-2-methylpropanoic acid] | 10 to 100
20 | CCn1nnc2c(F)c([C@H](c3ccc(C)c(CN4Cc5cccnc5OC(C)(C)C4)c3)[C@@H](C)C(=O)O)ccc21 [Example 195, (2R,3S)-3-(3-((2,2-Dimethyl-2,3-dihydropyrldo[3,2-f][1,4]oxazepin-4(5H)-yl)methyl)-4-methylphenyl)-3-(1-ethyl-4-fluoro-1H-benzo[d][1,2,3]triazol-5-yl)-2-methylpropanoic acid] | 10 to 100
21 | CCn1nnc2c(C)c([C@H](c3ccc(C)c(CN4Cc5cnccc5OC(C)(C)C4)c3)[C@@H](C)C(=O)O)ccc21 [Example 196, (2R,3S)-3-(3-((2,2-Dimethyl-2,3-dihydropyrido[3,4-f][1,4]oxazepin-4(5H)-yl)methyl)-4-methylphenyl)-3-(1-ethyl-4-methyl-1H-benzo[d][1,2,3]triazol-5-yl)-2-methylpropanoic acid, Trifluoroacetic acid salt] | 1 to 10
22 | CC[C@@H]1CN(Cc2cc([C@H](c3ccc4c(nnn4CC)c3C)[C@H](C)C(=O)O)ccc2C)Cc2cnccc2O1 [Example 197, (2S,3R)-3-(3-(((R)-2-Ethyl-2,3-dihydropyrido[3,4-f][1,4]oxazepin-4(5H)-yl)methyl)-4-methylphenyl)-3-(1-ethyl-4-methyl-1H-benzo[d][1,2,3]triazol-5-yl)-2-methylpropanoate, Sodium salt] | 10 to 100
23 | Cc1ccc([C@H](c2ccc3c(nnn3C)c2C)[C@H](C)C(=O)O)cc1CN1Cc2cnccc2OC(C)(C)C1 [Example 198, (2S,3R)-3-(1,4-Dimethyl-1H-benzo[d][1,2,3]triazol-5-yl)-3-(3-((2,2-dimethyl-2,3-dihydropyrido[3,4-f][1,4]oxazepin-4(5H)-yl)methyl)-4-methylphenyl)-2-methylpropanoic acid, 0.1 formic acid salt] | 10 to 100
24 | CCn1nnc2c(C)c([C@@H](c3ccc(C)c(CN4Cc5ccccc5OC(C)(C)C4)c3)[C@H](C)C(=O)O)ccc21 [Example 200, (2S,3R)-3-(3-((2,2-Dimethyl-2,3-dihydrobenzo[f][1,4]oxazepin-4(5H)-yl)methyl)-4-methylphenyl)-3-(1-ethyl-4-methyl-1H-benzo[d][1,2,3]triazol-5-yl)-2-methylpropanoic Acid, 2 Trifluoroacetic Acid Salt] | 10 to 100
